Where two headings read alike, the source gives them in different places. Starred links: 1 amine or outer side, 2 acyl side, 3 side chain; linkers in the order of their positions; H or OH if unused. Positions of bridges follow the written chain, without caps; N, C: chain ends. Non-standard residues stand in square brackets, D forms with d. Residues, ends and D or L forms follow the SMILES beside them. *: point of attachment. NMePhe(3-Cl) = CN[C@@H](Cc1cccc(Cl)c1)C(=O)O; NMeF = CN[C@@H](Cc1ccccc1)C(=O)O; NMeβAla = CN(CCC(=O)[*:2])[*:1]; NMeL = CN[C@@H](CC(C)C)C(=O)O; NMeA = CN[C@@H](C)C(=O)O; Piperidide = C1CCN(*)CC1; dNMeA = CN[C@H](C)C(=O)O; Sar = CNCC(=O)O
Tests used:
[1] = PAMPA (parallel artificial membrane permeability assay); format: in vitro ADME; conditions: PAMPA
Procedure, shortened: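 Artificial membrane was 10% (w/v) egg lecithin plus 0.5% (w/v) cholesterol in dodecane on a PVDF filter. A 10 mM DMSO stock was added at 0.5% (v/v) to donor buffer (50 mM MOPSO, pH 6.5, 5.0% glycocholic acid). After 18 h at 37 °C, LC/MS or LC/UV gave donor and acceptor levels for Pe.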

[2] = Metabolic stability in human hepatic microsome; format: in vitro ADME; conditions: microsomes
[3] = membrane permeation rate (Pe), 50 mM MOPSO buffer pH 6.5 with 5.0% glycocholic acid, 37° C., 18 hours, read-out: iPAMPA Pe
[4] = pH 7.4, human hepatic microsome, NADPH(+), read-out: CL NADPH(+)

## CC[C@H](C)[C@H](NC(=O)[C@H](CC(C)C)NC(=O)[C@@H]1CCCN1C(=O)[C@H](CC(C)C)NC(=O)[C@H](CC(C)C)N(C)C(=O)[C@@H]1CC(=O)N[C@@H](Cc2ccccc2)C(=O)N[C@@H](CC(C)C)C(=O)N(C)[C@@H](CC(C)C)C(=O)N[C@@H]([C@@H](C)O)C(=O)N(C)[C@@H](Cc2cccc(Cl)c2)C(=O)N(C)[C@@H](C)C(=O)N(C)[C@@H](CC(C)C)C(=O)N1)C(=O)N1CCCCC1 [DP-925] (FL[NMeL]T[NMePhe(3-Cl)][NMeA][NMeL]D[NMeL]LPLI-Piperidide; lactam N-8)
[1]; [3]
  Papp at 18 hours, 50 µM: 0.1 ×10⁻⁶ cm/s
[2]; [4]
  microsomal CLint at 1 uM: 2 µL/min/mg

## CC[C@H](C)[C@@H]1NC(=O)[C@H](CC(C)C)N(C)C(=O)[C@H]([C@@H](C)O)NC(=O)[C@H](CC(C)C)N(C)C(=O)[C@H](C(C)C)NC(=O)[C@H](Cc2ccccc2)N(C)C(=O)CCN(C)C(=O)C[C@@H](C(=O)N2CCC[C@H]2C(=O)N[C@H](C(=O)N(C)[C@@H](Cc2cccc(Cl)c2)C(=O)N(C)[C@@H](Cc2ccccc2)C(=O)N[C@H](C(=O)N2CCCCC2)[C@@H](C)CC)C(C)C)NC1=O [DP-926] ([NMeβAla][NMeF]V[NMeL]T[NMeL]IDPV[NMePhe(3-Cl)][NMeF]I-Piperidide; lactam N-8)
[1]; [3]
  Papp at 18 hours, 50 µM: 0.1 ×10⁻⁶ cm/s
[2]; [4]
  microsomal CLint at 1 uM: 53 µL/min/mg

## CC[C@H](C)[C@H](NC(=O)[C@H](CC(C)C)N(C)C(=O)[C@H](CC(C)C)N(C)C(=O)[C@H](Cc1cccc(Cl)c1)N(C)C(=O)[C@@H]1CC(=O)N(C)[C@@H](C)C(=O)N[C@@H](C(C)C)C(=O)N(C)[C@@H](Cc2ccccc2)C(=O)N[C@@H]([C@@H](C)O)C(=O)N2CCC[C@H]2C(=O)N(C)[C@@H](Cc2ccccc2)C(=O)N[C@@H](CC(C)C)C(=O)N1)C(=O)N1CCCCC1 [DP-927] ([NMeA]V[NMeF]TP[NMeF]LD[NMePhe(3-Cl)][NMeL][NMeL]I-Piperidide; lactam N-8)
[1]; pH 6.5
  Papp at 18 hours, 50 µM: 0.1 ×10⁻⁶ cm/s
[2]; human, pH 7.4, CL NADPH(+)
  microsomal CLint at 1 uM: 5 µL/min/mg

## CC[C@H](C)[C@H](NC(=O)[C@H](Cc1ccccc1)N(C)C(=O)[C@H](C)N(C)C(=O)[C@@H](NC(=O)[C@@H]1CC(=O)N[C@@H](C)C(=O)N[C@@H]([C@@H](C)O)C(=O)N(C)[C@@H](CC(C)C)C(=O)N[C@@H](C(C)C)C(=O)N(C)[C@@H](Cc2cccc(Cl)c2)C(=O)N(C)[C@@H](CC(C)C)C(=O)N[C@@H](Cc2ccccc2)C(=O)N1)[C@@H](C)CC)C(=O)N1CCCCC1 [DP-928] (AT[NMeL]V[NMePhe(3-Cl)][NMeL]FDI[NMeA][NMeF]I-Piperidide; lactam N-8)
[1]; [3]
  Papp at 18 hours, 50 µM: 0.1 ×10⁻⁶ cm/s
[2]; [4]
  microsomal CLint at 1 uM: 60 µL/min/mg

## CC[C@H](C)[C@H](NC(=O)[C@H](CC(C)C)N(C)C(=O)[C@@H]1CCCN1C(=O)[C@H](Cc1ccccc1)N(C)C(=O)[C@@H]1CC(=O)N[C@H](C(C)C)C(=O)N[C@@H](C)C(=O)N(C)[C@@H](Cc2ccccc2)C(=O)N(C)[C@@H](C)C(=O)N[C@@H](Cc2ccccc2)C(=O)N(C)[C@@H](CC(C)C)C(=O)N[C@@H]([C@@H](C)O)C(=O)N1)C(=O)N1CCCCC1 [DP-929] ([dV]A[NMeF][NMeA]F[NMeL]TD[NMeF]P[NMeL]I-Piperidide; lactam N-8)
[1]; [3]
  Papp at 18 hours, 50 µM: 12 ×10⁻⁶ cm/s
[2]; [4]
  microsomal CLint at 1 uM: 49 µL/min/mg

## CC[C@H](C)[C@H](NC(=O)[C@@H](NC(=O)[C@H](Cc1ccccc1)NC(=O)[C@H](CC(C)C)N(C)C(=O)[C@@H]1CC(=O)N(C)CCC(=O)N(C)[C@@H](C)C(=O)N[C@@H](CC(C)C)C(=O)N[C@@H]([C@@H](C)O)C(=O)N(C)[C@@H](Cc2ccccc2)C(=O)N(C)[C@@H](CC(C)C)C(=O)N(C)[C@@H](Cc2ccccc2)C(=O)N1)C(C)C)C(=O)N1CCCCC1 [DP-930] ([NMeβAla][NMeA]LT[NMeF][NMeL][NMeF]D[NMeL]FVI-Piperidide; lactam N-8)
[1]; [3]
  Papp at 18 hours, 50 µM: 0.46 ×10⁻⁶ cm/s
[2]; [4]
  microsomal CLint at 1 uM: 168 µL/min/mg

## CC[C@H](C)[C@H](NC(=O)[C@H](C)N(C)C(=O)[C@H](CC(C)C)N(C)C(=O)[C@H](CC(C)C)NC(=O)[C@@H]1CC(=O)N[C@@H](Cc2ccccc2)C(=O)N[C@@H]([C@@H](C)CC)C(=O)N(C)[C@@H](CC(C)C)C(=O)N(C)[C@@H](CC(C)C)C(=O)N[C@@H](Cc2ccccc2)C(=O)N[C@@H]([C@@H](C)O)C(=O)N(C)[C@@H](Cc2cccc(Cl)c2)C(=O)N1)C(=O)N1CCCCC1 [DP-931] (FI[NMeL][NMeL]FT[NMePhe(3-Cl)]DL[NMeL][NMeA]I-Piperidide; lactam N-8)
[1]; [3]
  Papp at 18 hours, 50 µM: 0.1 ×10⁻⁶ cm/s
[2]; [4]
  microsomal CLint at 1 uM: 12 µL/min/mg

## CC[C@H](C)[C@@H]1NC(=O)[C@H](Cc2ccccc2)N(C)C(=O)[C@H](CC(C)C)N(C)C(=O)[C@H](Cc2ccccc2)NC(=O)[C@H](C)N(C)C(=O)[C@H]([C@@H](C)O)NC(=O)[C@H](C(C)C)NC(=O)[C@@H](C(C)C)NC(=O)C[C@@H](C(=O)N(C)[C@@H](Cc2ccccc2)C(=O)N[C@H](C(=O)N(C)[C@@H](C)C(=O)N(C)[C@@H](CC(C)C)C(=O)N[C@H](C(=O)N2CCCCC2)[C@@H](C)CC)C(C)C)NC1=O [DP-935] ([dV]VT[NMeA]F[NMeL][NMeF]ID[NMeF]V[NMeA][NMeL]I-Piperidide; lactam N-9)
[1]; [3]
  Papp at 18 hours, 50 µM: 0.1 ×10⁻⁶ cm/s
[2]; [4]
  microsomal CLint at 1 uM: 29 µL/min/mg

## CC[C@H](C)[C@H](NC(=O)[C@H](CC(C)C)N(C)C(=O)[C@@H]1CCCN1C(=O)[C@@H](NC(=O)[C@H](C)N(C)C(=O)[C@@H]1CC(=O)N[C@@H](C)C(=O)N(C)[C@@H](CC(C)C)C(=O)N(C)[C@@H](Cc2cccc(Cl)c2)C(=O)N[C@@H](C(C)C)C(=O)N(C)[C@@H](CC(C)C)C(=O)N(C)[C@@H](CC(C)C)C(=O)N[C@@H]([C@@H](C)O)C(=O)N[C@@H](Cc2ccccc2)C(=O)N1)C(C)C)C(=O)N1CCCCC1 [DP-936] (A[NMeL][NMePhe(3-Cl)]V[NMeL][NMeL]TFD[NMeA]VP[NMeL]I-Piperidide; lactam N-9)
[1]; [3]
  Papp at 18 hours, 50 µM: 0.11 ×10⁻⁶ cm/s
[2]; [4]
  microsomal CLint at 1 uM: 29 µL/min/mg

## CC[C@H](C)[C@H](NC(=O)[C@H](CC(C)C)NC(=O)[C@H](CC(C)C)N(C)C(=O)[C@@H](NC(=O)[C@@H]1CCCN1C(=O)[C@@H]1CC(=O)N(C)CCC(=O)N[C@@H](CC(C)C)C(=O)N(C)[C@@H](CC(C)C)C(=O)N[C@@H]([C@@H](C)O)C(=O)N(C)[C@@H](C)C(=O)N[C@@H]([C@@H](C)CC)C(=O)N(C)[C@@H](CC(C)C)C(=O)N(C)[C@@H](CC(C)C)C(=O)N1)[C@@H](C)CC)C(=O)N1CCCCC1 [DP-937] ([NMeβAla]L[NMeL]T[NMeA]I[NMeL][NMeL]DPI[NMeL]LI-Piperidide; lactam N-9)
[1]; [3]
  Papp at 18 hours, 50 µM: 0.47 ×10⁻⁶ cm/s
[2]; [4]
  microsomal CLint at 1 uM: 164 µL/min/mg

## CC[C@H](C)[C@H](NC(=O)[C@H](Cc1ccccc1)N(C)C(=O)[C@@H](NC(=O)[C@H](C)NC(=O)[C@H](CC(C)C)N(C)C(=O)[C@@H]1CC(=O)N(C)[C@@H](C)C(=O)N(C)[C@@H](CC(C)C)C(=O)N(C)[C@@H](Cc2ccccc2)C(=O)N[C@@H]([C@@H](C)O)C(=O)N(C)[C@@H](CC(C)C)C(=O)N(C)[C@@H](CC(C)C)C(=O)N[C@@H]([C@@H](C)CC)C(=O)N(C)[C@@H](CC(C)C)C(=O)N1)C(C)C)C(=O)N1CCCCC1 [DP-938] ([NMeA][NMeL][NMeF]T[NMeL][NMeL]I[NMeL]D[NMeL]AV[NMeF]I-Piperidide; lactam N-9)
[1]; [3]
  Papp at 18 hours, 50 µM: 0.1 ×10⁻⁶ cm/s
[2]; [4]
  microsomal CLint at 1 uM: 8 µL/min/mg

## CC[C@H](C)[C@H](NC(=O)[C@H](CC(C)C)N(C)C(=O)CN(C)C(=O)[C@@H](NC(=O)[C@@H]1CC(=O)N[C@H](C(C)C)C(=O)N[C@@H](C)C(=O)N[C@@H]([C@@H](C)O)C(=O)N(C)[C@@H](C)C(=O)N[C@@H](Cc2ccccc2)C(=O)N(C)[C@@H](CC(C)C)C(=O)N(C)[C@@H](Cc2ccccc2)C(=O)N(C)[C@@H](CC(C)C)C(=O)N1)C(C)C)C(=O)N1CCCCC1 [DP-939] ([dV]AT[NMeA]F[NMeL][NMeF][NMeL]DV[Sar][NMeL]I-Piperidide; lactam N-9)
[1]; [3]
  Papp at 18 hours, 50 µM: 3.6 ×10⁻⁶ cm/s
[2]; [4]
  microsomal CLint at 1 uM: 8 µL/min/mg

## CC[C@H](C)[C@H](NC(=O)[C@@H](NC(=O)[C@H](CC(C)C)N(C)C(=O)[C@@H](NC(=O)[C@@H]1CC(=O)N(C)[C@@H](C)C(=O)N[C@@H](CC(C)C)C(=O)N(C)[C@@H](Cc2ccccc2)C(=O)N[C@@H](CC(C)C)C(=O)N(C)CC(=O)N(C)[C@@H](CC(C)C)C(=O)N[C@@H]([C@@H](C)CC)C(=O)N(C)[C@@H](CC(C)C)C(=O)N1)[C@@H](C)O)C(C)C)C(=O)N1CCCCC1 [DP-940] ([NMeA]L[NMeF]L[Sar][NMeL]I[NMeL]DT[NMeL]VI-Piperidide; lactam N-9)
[1]; [3]
  Papp at 18 hours, 50 µM: 0.14 ×10⁻⁶ cm/s
[2]; [4]
  microsomal CLint at 1 uM: 37 µL/min/mg

## CC[C@H](C)[C@H](NC(=O)[C@H](CC(C)C)N(C)C(=O)[C@@H](NC(=O)[C@H](Cc1ccccc1)N(C)C(=O)[C@@H]1CC(=O)N(C)CCC(=O)N(C)[C@@H](Cc2cccc(Cl)c2)C(=O)N[C@@H](CC(C)C)C(=O)N[C@@H]([C@@H](C)O)C(=O)N[C@@H](CC(C)C)C(=O)N[C@@H]([C@@H](C)CC)C(=O)N(C)[C@@H](CC(C)C)C(=O)N(C)[C@@H](CC(C)C)C(=O)N1)[C@@H](C)CC)C(=O)N1CCCCC1 [DP-941] ([NMeβAla][NMePhe(3-Cl)]LTLI[NMeL][NMeL]D[NMeF]I[NMeL]I-Piperidide; lactam N-9)
[1]; [3]
  Papp at 18 hours, 50 µM: 0.1 ×10⁻⁶ cm/s
[2]; [4]
  microsomal CLint at 1 uM: 49 µL/min/mg

## CC[C@H](C)[C@H](NC(=O)[C@H](C)N(C)C(=O)[C@@H]1CCCN1C(=O)[C@@H](NC(=O)[C@@H]1CC(=O)N(C)[C@H](C)C(=O)N(C)[C@@H](CC(C)C)C(=O)N(C)[C@@H](Cc2ccccc2)C(=O)N[C@@H](CC(C)C)C(=O)N(C)[C@@H](Cc2cccc(Cl)c2)C(=O)N[C@@H]([C@@H](C)O)C(=O)N(C)[C@@H](Cc2ccccc2)C(=O)N[C@@H](CC(C)C)C(=O)N1)[C@@H](C)CC)C(=O)N1CCCCC1 [DP-942] ([dNMeA][NMeL][NMeF]L[NMePhe(3-Cl)]T[NMeF]LDIP[NMeA]I-Piperidide; lactam N-9)
[1]; [3]
  Papp at 18 hours, 50 µM: 0.1 ×10⁻⁶ cm/s
[2]; [4]
  microsomal CLint at 1 uM: 23 µL/min/mg

Source: US9409952B2, “Peptide-compound cyclization method” (Chugai Seiyaku Kabushiki Kaisha, priority 2011, dated 2016)
